How the values were obtained:
[1] = tested on: antral portion of the stomach; test: Effects on gastrointestinal contractility (transducing crystals on antral portion of the stomach); type: in vivo, Sprague-Dawley rats
Procedure: Two male Sprague-Dawley rats, approximately 12 weeks old (Harlan, Indianapolis, Ind.) were anesthetized with urethane and their stomachs were exposed through a small abdominal incision. Two 2.4 mm transducing crystals (Sonometrics, Ontario, Canada) were placed on the antral portion of the stomach such that circular contractions could be monitored as a change in the distance between the two crystals. The crystals were attached with VETBOND TISSUE ADHESIVE (3M, St. Paul, Minn.).
10 ml of norepinephrine (NE) at 1 mM caused a reduction in the distance between the two crystals. The amplitude of the NE-induced decrease was approximately 50% of the acetylcholine-induced increase in distance. Both responses were transient.
A negative control of 10 ml of phosphate buffer solution (PBS) applied topically between the crystals had no effect.
A 14 amino acid zsig33 peptide (zsig33-1, as shown in Example 4) was dissolved in PBS and 10 ml was applied topically for a final concentration of 1 mg, 10 mg or 100 mg.

[2] = tested on: duodenum, jejunum, kidney and other harvested tissues; test: Binding studies of FITC-labeled zsig33 peptides in situ (tail vein injection, fluorescent microscopy of tissue sections); type: in vivo, Balb C male mice; conditions: FITC-labeled peptide, 0.5 ml (0.5 mg) tail vein, circulated 15 minutes, microscopy at 495 nm
Procedure: Ten week old Balb C male mice were anesthetized via intramuscular injection and tested for binding of zsig33 peptides in vivo.
Two peptides were tested: the first peptide, zsig33-1, (See Example 4) consisted of residues 24 to 37 of SEQ ID NO:2, and the second peptide, zsig33-2, consisted of residues 24 to 41 of SEQ ID NO:2. A single glycine was used as a negative control. Additionally, a “scrambled” negative control consisting of residues the first peptide which had been rearranged (SEQ ID NO:15) was also tested. The peptides and controls were coupled to fluorescein isothiocyantate (FITC, Molecular Probes, Eugene, Oreg.) in the following manner: The peptides, glycine control and FITC were dissolved in 0.1 M sodium bicarbonate at pH 9.0 to a concentration of 2.0 mg/ml for the peptides and glycine control and 5 mg/ml for FITC, avoiding exposure of the FITC to strong light. […] The buffer was changed daily and unbound FITC in the post-dialyzed buffer was measured by HPLC. […] Peptide- or glycine-bound FITC was determined by measuring the absorbance of the dialyzed FITC-bound material at 498 nm and dividing by the extinction coefficient of fluorescein, […]. The molar ratio of fluorescein to peptide (mole FITC/mole peptide) was then determined. […]

[3] = Effects on glucose absorption after oral glucose challenge; type: in vivo, ob/ob mice; conditions: 100 mg orally, 30 minutes prior to an oral glucose challenge (0.5 ml of 25% glucose), serum glucose
Procedure: Eight female ob/ob mice, approximately 6 weeks old (Jackson Labs, Bar Harbor, Me.) were adapted to a 4 hour daily feeding schedule for two weeks. After two weeks on the feeding schedule, the mice were given 100 mg of a zsig33 peptide (zsig33-1, as shown in Example 4) in 100 ml sterile 0.1% BSA by oral gavage, immediately after their eating period (post-prandially). Thirty minutes later, the mice were challenged orally with a 0.5 ml volume of 25% glucose. Retroorbital bleeds were done to determine serum glucose levels. Blood was drawn prior to zsig33 dosing, prior to oral glucose challenge, and at 1, 2, 4, and 20 hours following the glucose challenge.

[4] = tested on: stomachs of fasted male Sprague-Dawley rats; test: Effects on gastric emptying (transit of phenol red through the stomach); type: in vivo; conditions: 1 μg applied topically to the stomach five minutes after gavage, measured 30 minutes after the gavage
Procedure: The effect of topically applied zsig33 peptide (amino acid 24 to 37 of SEQ ID NO: 2) on the transit of phenol red through the stomachs of fasted male Sprague-Dawley rats (Harlan, Indianapolis, Ind.) was evaluated. The rats (6 animals, 8 weeks old) were fasted 24 hrs prior to being anesthetized with urethane (0.5 ml/100 grams of 25% solution). After anesthetizing, the animals were orally gavaged with 1 ml of Phenol Red solution (50 mg/ml in 2% methylcellulose solution).
The stomach of each animal was exposed through a small abdominal incision and either 1 μg zsig33 peptide or a 14 amino acid control of a scrambled sequence peptide was applied topically to the stomach five minutes following the gavage. The amount of Phenol Red remaining in the stomach was determined by measuring optical density of the extracted stomach contents 30 minutes after the gavage.

[5] = Effects on body weight, food intake and glucose clearance; type: in vivo, ob/ob mice; conditions: 1 mg/mouse orally twice daily for fourteen days, versus scrambled peptide
Procedure: Sixteen female ob/ob mice, 8 weeks old, (Jackson Labs, Bar Harbor, Me.) were adapted to a special 4 hour daily feeding schedule for two weeks. The were fed ad libitum from 7:30-11:30 am daily. After two weeks on the feeding schedule, the mice were divided into two groups of 8. One group was given 1.0 mg/mouse of zsig33-1 (14 amino acid peptide) and the other vehicle (a 14 amino acid scrambled sequence peptide) in […] sterile 0.1% BSQA by oral gavage just prior to receiving food, and at the end of the 4 hour feeding period. The mice were […] twice daily for fourteen days, during which time food intake and body weight was measured daily. On day 14, immediately after the second oral gavage of the zsig33-1 peptide, the mice were challenged orally with an 0.5 ml volume of 25% glucose. Retro-orbital bleeds were done to determine serum glucose levels immediately prior to administration of the zsig33-1 peptide or vehicle (t=30 min.), and also at 0, 1, 2, and 4 hours following the glucose challenge.

| Compound | amplitude of the NE-induced decrease relative to the acetylcholine-induced increase in distance ([1]; 10 ml of 1 mM applied topically) | change in the distance between the two crystals ([1]; 10 ml of 1 mM applied topically to the stomach, anesthetized rats) | fluorescence in duodenum, jejunum and in the collecting ducts and convoluted tubules of the kidney compared to the glycine and "scrambled" controls [2] | change in crystal distance (contractions) ([1]; 10 ml in PBS applied topically, 1 mg) | response in rate and amplitude of the contractions ([1]; 10 ml in PBS applied topically, 10 mg and 100 mg, compared with 1 mg) | post-prandial glucose absorption [3] | reduction of the amount of Phenol Red remaining in the stomach compared to a scrambled peptide [4] | daily body weight [5] | daily food intake [5] |
| --- | --- | --- | --- | --- | --- | --- | --- | --- | --- |
| NC[C@H](O)c1ccc(O)c(O)c1 [norepinephrine, reference compound] | approximately 50% | reduction |  |  |  |  |  |  |  |
| zsig33-1: 14 amino acid peptide corresponding to amino acid residue 24 (Gly) to amino acid residue 37 (Gln) of SEQ ID NO: 2 (GSSFLSPEHQRVQQ; listed as Homo sapiens) |  |  | increased fluorescence | sustained, rhythmic increase and decrease in crystal distance | enhanced responses in both rate and amplitude | enhanced post-prandial glucose absorption | approximately 25% | no affect | no affect |
| zsig33-2: peptide consisting of residues 24 to 41 of SEQ ID NO:2 (GSSFLSPEHQRVQQRKES; listed as Homo sapiens) |  |  | increased fluorescence |  |  |  |  |  |  |

— US8124356B2, “Methods of purifying zsig33” (ZymoGenetics, Inc., priority 1999, dated 2012)
